From PMC10283505, “CVM-1118 (foslinanib), a 2-phenyl-4-quinolone derivative, promotes apoptosis and inhibits vasculogenic mimicry via targeting TRAP1” (Pathology and Oncology Research, 2023) come the findings set out here.

For series [1], the system named is A549. As to the kind of experiment: Cytotoxicity assay (Alamar Blue, 72 h). The class given is cell-based. As to conditions: Homo sapiens, A549 (Lung). The protocol: (§1) For cytotoxicity and cell cycle analysis, the following cell lines were used, and their culture conditions were as described: for A549, DU-145, HT-29, MDA-MB-231, Mia PaCa-2, and U118MG, cells were cultured in DMEM containing 10% FCS; for MDA- MB-435 and NCI-ADR-RES, cells were cultured in RPMI-1640 containing 10% FCS, and for SK-N-MC, cells were cultured in MEM containing 10% FCS. For the animal pharmacology study, HCT-116, a colon cancer cell line was tested. Cells were cultured in McCoy’s 5a medium supplemented with 10% heat inactivated fetal bovine serum. For the cell lines used in VM analysis and target identification, C8161 and COLO205 cells were maintained in RPMI-1640 containing 10% FBS and 0.1% gentamycin sulfate. The SKOV3 line was cultured in RPMI-1640 supplemented with 15% FBS and 0.1% gentamycin sulfate. For the SK-MEL28 and MCF-7, cells were maintained in MEM/Earles Salts supplemented with 10% FBS and 0.1% gentamycin sulfate.
(§2) This assay was conducted in ProQinase GmbH (Freiburg, Germany). Nine cancer cell lines (A549, DU-145, HT-29, MDA-MB-231, MDA-MB-435, Mia PaCa-2, NCI-ADR-RES, SK-N-MC, and U118MG) were seeded at 5,000 cells/well in 96-well cell culture plates in 150 µL of complete medium for 24 h prior to treatment. The test compounds CVM-1118 and CVM-1125 were synthesized by China Medical University, Chengdu Chempartner Co., Ltd., and Formosa Laboratories, Inc. To prepare the assay, the compounds were dissolved in 100% DMSO at a concentration of […]. Cells were then treated with vehicle, CVM-1118 or CVM-1125 at various concentrations for 72 h. Cell viability was determined by the fluorescent quantification of Alamar Blue (Invitrogen, Thermo Fisher Scientific). By the end of incubation, Alamar Blue reagent was added to the well for 4 h and the fluorescence was measured at 590 nm. The amount of fluorescence produced is proportional to the number of metabolically active cells. IC50 determination was performed using a variable slope sigmoidal response fitting model with 0% cell growth as a bottom constraint and 100% cell growth as a top constraint (GraphPad Prism, United States).

Series [2] concerns DU-145. Briefly: Cytotoxicity assay (Alamar Blue, 72 h). The series is classed as cell-based. Particulars: Homo sapiens, DU-145 (Prostate). The protocol: as §1, §2
For series [3], the system named is HT-29. Briefly: Cytotoxicity assay (Alamar Blue, 72 h). The class given is cell-based. As to conditions: Homo sapiens, HT-29 (Colon). The protocol: as §1, §2
The subject of series [4] is MDA-MB-231. As to the kind of experiment: Cytotoxicity assay (Alamar Blue, 72 h). The class given is cell-based. As to conditions: Homo sapiens, MDA-MB-231 (Breast). On the procedure: as §1, §2
The subject of series [5] is MDA-MB-435. As to the kind of experiment: Cytotoxicity assay (Alamar Blue, 72 h). The class given is cell-based. Particulars: Homo sapiens, MDA-MB-435 (Melanoma). On the procedure:
as §1, §2

For series [6], the system named is Mia PaCa-2. Briefly: Cytotoxicity assay (Alamar Blue, 72 h). The series is classed as cell-based. As to conditions: Homo sapiens, Mia PaCa-2 (Pancreatic). The protocol:
as §1, §2

The test system of series [7] is NCI-ADR-RES. As to the kind of experiment: Cytotoxicity assay (Alamar Blue, 72 h). The series is classed as cell-based. As to conditions: Homo sapiens, NCI-ADR-RES (Ovarian). On the procedure:
as §1, §2

Series [8] relates to SK-N-MC. Briefly: Cytotoxicity assay (Alamar Blue, 72 h). The class given is cell-based. As to conditions: Homo sapiens, SK-N-MC (Neuroblastoma). On the procedure: as §1, §2
Series [9] has as its system U118MG. As to the kind of experiment: Cytotoxicity assay (Alamar Blue, 72 h). The series is classed as cell-based. As to conditions: Homo sapiens, U-118-MG, U118MG (Glioma). On the procedure: as §1, §2
Series [10] concerns nine selected human cancer cell lines. As to the kind of experiment: Cytotoxicity assay, panel of nine selected human cancer cell lines. The series is classed as cell-based. As to conditions: all nine cell lines of Table 1. The protocol: as §2
The target in series [11] is TGFβ1/1 (HIC5) (Homo sapiens, UniProt O43294). As to the kind of experiment: Surface plasmon resonance (Biacore). The series is classed as binding. As to conditions: TGFβ1/1, SPR.
Sequence of TGFβ1/1 (HIC5) (O43294 whole entry): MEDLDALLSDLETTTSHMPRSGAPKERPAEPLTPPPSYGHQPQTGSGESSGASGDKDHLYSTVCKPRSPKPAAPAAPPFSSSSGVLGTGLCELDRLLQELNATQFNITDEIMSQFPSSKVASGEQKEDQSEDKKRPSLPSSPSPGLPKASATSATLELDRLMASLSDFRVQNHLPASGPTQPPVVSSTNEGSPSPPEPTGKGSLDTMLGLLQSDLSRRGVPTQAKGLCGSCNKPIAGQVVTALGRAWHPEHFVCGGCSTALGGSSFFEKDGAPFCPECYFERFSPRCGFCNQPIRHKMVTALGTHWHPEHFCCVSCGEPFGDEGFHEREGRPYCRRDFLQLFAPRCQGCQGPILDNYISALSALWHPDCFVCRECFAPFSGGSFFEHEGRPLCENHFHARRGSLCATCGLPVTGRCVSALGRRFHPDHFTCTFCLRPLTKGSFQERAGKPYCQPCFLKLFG
In series [12] the test system is M14. As to the kind of experiment: NCI 60 cytotoxicity screening. Particulars: Homo sapiens; M14, Melanoma. The series is classed as cell-based.
Series [13] has as its system NCI/ADR-RES. Briefly: NCI 60 cytotoxicity screening. As to conditions: Homo sapiens, Ovarian. The series is classed as cell-based.
For series [14], the system named is NCI-H460. Briefly: NCI 60 cytotoxicity screening. The class given is cell-based. As to conditions: Homo sapiens; NCI-H460, NSCLC.
In series [15] the test system is A549/ATCC. As to the kind of experiment: NCI 60 cytotoxicity screening. The series is classed as cell-based. As to conditions: Homo sapiens, NSCLC.
Series [16] relates to EKVX. As to the kind of experiment: NCI 60 cytotoxicity screening. The series is classed as cell-based. As to conditions: Homo sapiens, NSCLC.
The nature of series [17]: Pharmacokinetic study of oral CVM-1118 in mouse (plasma, LC-MS/MS). The class given is in vivo, male CD-1 mice. Particulars: for AUC(0-inf) / AUC(0-t) / Cmax / MRT / Tmax / half-life: mouse, analyte in plasma after single oral CVM-1118 30 mg/kg in 9% NaHCO3, fasted male CD-1 mice; for half-life: read-out: T1/2 (terminal half-life) (converted). The protocol:
Supplementary Results on Pharmacokinetic study of oral CVM-1118 in Mouse Method: The pharmacokinetics of CVM-1118 and CVM-1125 were investigated in male CD-1 mice following a single oral administration of CVM-1118 at 30 mg/kg in 9% NaHCO3 in fasted mice. At pre-determined time points, plasma samples were collected and stored at -20°C prior to measurement of CVM-1118 and CVM-1125 concentrations using an LC-MS/MS method. The plasma samples were collected at 0, 0.25, 0.5, 1, 2, 4, 8, 12, 24 and 27 h after dosing with 3 mice per group at each time […]
Result: For single oral administration of 30 mg/kg CVM-1118 in 9% NaHCO3 solution, […]
from CVM-1118 to CVM-1125 occurred very rapidly.
1118 and CVM-1125. The drug exposure (AUC0-inf) of CVM-1118 was low (7 ng·h/mL), indicating rapid conversion to CVM-1125 following oral dosing (AUC0-inf of TRX-818M1 was 287 ng·h/mL). The terminal half-life of CVM-1118 and CVM-1125 were 0.7 h and 8.3 h, respectively. The oral bioavailability of CVM-1118 was low (~3%), […]
1118, was considered favorable.
Mean plasma concentrations-time curves of CVM-1118 and CVM-1125 following a single dose of CVM-1118 in male CD-1 mice
(1 picture or pasted object on this page, not shown here)

Take `COc1ccc2[nH]c(-c3cccc(F)c3)cc(=O)c2c1O` [CVM-1125]: the IC50 amounted to 0.029 µM in [1]; 0.027 µM in series [2]; 0.017 µM in series [3]; 0.014 µM in series [4]; 0.005 µM in series [5]; 0.007 µM in series [6]. Besides, the half-inhibitory concentration (IC50) in [7] is 0.014 µM; in [8], 0.008 µM; in series [9] it was 0.008 µM; in series [10], below 0.05 µM. Further, the “Association (ka)” value in series [11] is given as “No dose dependent interaction”. The “Dissociation (kd)” value in [11] is “No dose dependent interaction”. For the same compound, the “KD (kd/ka)” value in series [11] is recorded as “No dose dependent interaction”. For the same compound, the concentration for 50% growth inhibition (GI50) in series [12] came to 0.0189 µM; in series [13] it was 0.0208 µM; in series [14], 0.0328 µM; in series [15] it was 0.0414 µM; in [16], 0.0461 µM. The same compound had an AUC(0-inf) in [17] of 287 ng·h/mL. This compound returned an AUC(0-t) in series [17] of 279 ng·h/mL. Besides, the Cmax in [17] came to 349 ng/mL. In series [17], this compound returned an MRT of 180 min. Further, the Tmax in series [17] was 15 min. Moreover, the half-life in series [17] was 498 min.
Take `COc1ccc2[nH]c(-c3cccc(F)c3)cc(=O)c2c1OP(=O)(O)O` [CVM-1118]: the 50% inhibitory concentration (IC50) in [1] came to 0.026 µM; in series [2], 0.021 µM; in series [3], 0.015 µM; in series [4], 0.018 µM; in [5] it was 0.004 µM; in series [6], 0.011 µM. In addition, the half-maximal inhibitory concentration (IC50) was 0.014 µM in series [7], 0.009 µM in series [8], 0.01 µM in series [9] and below 0.05 µM in series [10]. Besides, in series [17] (male, CD-1, mouse, plasma, po, 30 mg/kg, single oral CVM-1118 30 mg/kg in 9% NaHCO3, fasted male CD-1 mice, read-out: F (oral bioavailability)), the bioavailability is around 3%. Moreover, the AUC(0-inf) in series [17] turned out to be 7 ng·h/mL. Moreover, the area under the curve AUC(0-t) in series [17] amounted to 7 ng·h/mL. The highest level in series [17] (Cmax) was 21 ng/mL. The MRT in series [17] was determined as 36 min. The Tmax in series [17] turned out to be 15 min. The half-life in [17] was 42 min. Further, the “F (oral bioavailability)” value in [17] (single oral CVM-1118 30 mg/kg in 9% NaHCO3, fasted male CD-1 mice, 30 mg/kg) came out at 2.96%.
